# In patent US8710085B2, “Pyrrolidine-1,2-dicarboxamide derivatives” (Novartis AG, priority 2008, dated 2014):
# Read-outs that look alike come from different tables or passages of the source.
# How the values were obtained:
# Format in all cases: biochemical
# PI3Kδ = biological target: T1, PI3Kδ (Homo sapiens, UniProt O00329); assay: PI3K KinaseGlo assay, PI3Kδ; settings: 10 nM enzyme, 1 μM ATP, 30 mins, room temperature, read-out: PI3Kd/IC50
# T1 construct: p85iSH2(461-568)-GGGGGG-p110δ(2-1044)-His; made in house; host or cells: baculovirus, Tn5 insect cells
# PI3Kα = biological target: T2, PI3Kα (Homo sapiens, UniProt P42336); assay: PI3K KinaseGlo assay, PI3Kα
# T2 construct: p110α(21-1068)-His; made in house; host or cells: baculovirus, Tn5 insect cells
# PI3Kγ = biological target: T3, PI3Kγ (Homo sapiens, UniProt P48736, Q459R); assay: PI3K KinaseGlo assay, PI3Kγ; settings: 150 nM enzyme, 1 μM ATP, 90 mins, room temperature, read-out: PI3Kg/IC50
# T3 construct: p110γ(Δ143-[Met144-1102])-His; made in house; host or cells: Tn5 insect cells; construct from Roger Williams lab, MRC LMB
# Protocol: (§1) L-a-phosphatidylinositol (PI), provided as 10 mg/ml solution in methanol, was transferred into a glass tube and dried under nitrogen beam. It was then resuspended in 3% OctylGlucoside (OG) by vortexing and stored at 4° C. The KinaseGlo Luminescent Kinase Assay (Promega, Madison/WI, USA) is a homogeneous HTS method of measuring kinase activity by quantifying the amount of ATP remaining in solution following a kinase reaction.
# 5 μL of a mix of PI/OG with the PI3K subtype were added (Table 1). Kinase reactions were started by addition of 5 μl of ATP-mix containing in a final volume 10 μL 10 mM TRIS-HCl pH 7.5, 3 mM MgCl2, 50 mM NaCl, 0.05% CHAPS, 1 mM DTT and 1 μM ATP, and occurred at room temperature. […] The standard was used as a reference compound and included in all assay plates in the form of 16 dilution points in duplicate. […]
# (§2) PI3Kα, PI3Kβ and PI3Kγ were purified in two chromatographic steps: immobilized metal affinity chromatography (IMAC) on a Ni sepharose resin (GE Healthcare) and gel filtration utilizing a Superdex 200 26/60 column (GE Healthcare). All buffers were chilled to 4° C. and lysis was performed chilled on ice. Column fractionation was performed at room temperature. All buffers used to purify PI3Kβ contained 0.05% Triton X100 in addition to what is described below.
# (§3) The lysate was centrifuged at 45,000 g for 30 minutes, and the supernatant was loaded onto a pre-equilibrated IMAC column (3 mL resin/100 mL lysate). […] Protein was eluted with 20 mM Tris-Cl, pH 7.5, 0.5 M NaCl, 5% glycerol, 250 mM imidazole, 1 mM NaF, 0.1 μg/mL OAA, 5 mM BME, 1× Complete protease inhibitor cocktail—EDTA-free. Pertinent fractions were analyzed by SDS-PAGE and pooled accordingly. The protein was further purified by gel filtration on a Superdex 200 26/60 column equilibrated in 20 mM Tris-Cl, pH 7.5, 0.5 M NaCl, 5% glycerol, 1 mM NaF, 5 mM DTT, 1× Complete protease inhibitor cocktail—EDTA-free. Pertinent fractions were analyzed by SDS-PAGE and pooled accordingly. An equal volume of Dialysis Buffer (20 mM Tris-Cl, pH 7.5, 500 mM NaCl, 50% glycerol, 5 mM NaF, 5 mM DTT) was added to the pool and than dialyzed against Dialysis Buffer two changes (one change overnight). Protein was stored at −20° C.
# PI3Kβ = biological target: T4, PI3Kβ (Homo sapiens, UniProt P42338); assay: PI3K KinaseGlo assay, PI3Kβ
# T4 construct: p110β(2-1070)-His; made in house; host or cells: baculovirus, Tn5 insect cells
# Protocol: as §1, with “PI3K KinaseGlo assay: […] of compound dilutions were dispensed onto black 384-well low volume Non Binding Styrene (NBS) plates (Costar Cat. No. NBS#3676). L-a-phosphatidylinositol” for “L-a-phosphatidylinositol”
# 5 μL of a mix of PI/OG with the PI3K subtype were added (Table 1). Kinase reactions were started by addition of 5 μl of ATP-mix containing in a final volume 10 μL 10 mM TRIS-HCl pH 7.5, 3 mM MgCl2, 50 mM NaCl, 0.05% CHAPS, 1 mM DTT and 1 μM ATP, and occurred at room temperature. […] The standard was used as a reference compound and included in all assay plates in the form of 16 dilution points in duplicate.
# The PI3Kα, PI3Kβ and PI3Kδ constructs are fusion of p85α iSH2 domain and the respective p110 isoforms. The p85α fragment and p110 isoform genes were generated by PCR from first strand cDNA generated by RT-PCR from commercial RNA from placenta, testis and brain as described below. The PI3Kγ construct was obtained from Roger Williams lab, MRC Laboratory of Molecular Biology, Cambridge, UK (November, 2003) and is described (Pacold, Michael E.; Suire, Sabine; Perisic, Olga; Lara-Gonzalez, Samuel; Davis, Colin T.; Walker, Edward H.; Hawkins, Phillip T.; Stephens, Len; Eccleston, John F.; Williams, Roger L. Crystal structure and functional analysis of Ras binding to its effector phosphoinositide 3-kinase gamma. Cell (2000), 103(6), 931-943).
# BV949: PCR products for the inter SH2 domain (iSH2) of the p85 PI3Kα, PI13Kβ and PI3Kδ subunit and for the full-length p110β subunit were generated and fused by overlapping PCR. […] The p11013 fragment was obtained by PCR using as template a p110β clone (from unknown source that was sequence verified) using primers gwG130-p04 (5′-[…]-[…]-3′) (SEQ ID NO: 9) which contains linker sequences and the 5′ end of p110β and gwG130-p06 (5′-[…]-[…]-3′) (SEQ ID NO: 10) which contains sequences of the 3′ end of p110-β fused to a Histidine tag. […] This final product was recombined in a Gateway (Invitrogen) […] into the donor vector pDONR201 (Invitrogen) to generate the ORF253 entry clone. This clone was verified by sequencing and used in a Gateway LR reaction (Invitrogen) to transfer the insert into the Gateway adapted pBlueBac4.5 (Invitrogen) vector for generation of the baculovirus expression vector LR280.
# as §2
# as §3, with “accordingly.” for “accordingly. An equal volume of Dialysis Buffer (20 mM Tris-Cl, pH 7.5, 500 mM NaCl, 50% glycerol, 5 mM NaF, 5 mM DTT) was added to the pool and than dialyzed against Dialysis Buffer two changes (one change overnight). Protein was stored at −20° C.”
# [1] = KinaseGlo, 10 nM enzyme, 1 μM ATP, 30 mins, room temperature, read-out: PI3Ka/IC50
# [2] = KinaseGlo, 25 nM enzyme, 1 μM ATP, 30 mins, room temperature, read-out: PI3Kb/IC50
# [3] = KinaseGlo, 10 nM enzyme, 1 μM ATP, 30 mins, room temperature
# T3 sequence (P48736 with tags, fused parts or gaps Q459R): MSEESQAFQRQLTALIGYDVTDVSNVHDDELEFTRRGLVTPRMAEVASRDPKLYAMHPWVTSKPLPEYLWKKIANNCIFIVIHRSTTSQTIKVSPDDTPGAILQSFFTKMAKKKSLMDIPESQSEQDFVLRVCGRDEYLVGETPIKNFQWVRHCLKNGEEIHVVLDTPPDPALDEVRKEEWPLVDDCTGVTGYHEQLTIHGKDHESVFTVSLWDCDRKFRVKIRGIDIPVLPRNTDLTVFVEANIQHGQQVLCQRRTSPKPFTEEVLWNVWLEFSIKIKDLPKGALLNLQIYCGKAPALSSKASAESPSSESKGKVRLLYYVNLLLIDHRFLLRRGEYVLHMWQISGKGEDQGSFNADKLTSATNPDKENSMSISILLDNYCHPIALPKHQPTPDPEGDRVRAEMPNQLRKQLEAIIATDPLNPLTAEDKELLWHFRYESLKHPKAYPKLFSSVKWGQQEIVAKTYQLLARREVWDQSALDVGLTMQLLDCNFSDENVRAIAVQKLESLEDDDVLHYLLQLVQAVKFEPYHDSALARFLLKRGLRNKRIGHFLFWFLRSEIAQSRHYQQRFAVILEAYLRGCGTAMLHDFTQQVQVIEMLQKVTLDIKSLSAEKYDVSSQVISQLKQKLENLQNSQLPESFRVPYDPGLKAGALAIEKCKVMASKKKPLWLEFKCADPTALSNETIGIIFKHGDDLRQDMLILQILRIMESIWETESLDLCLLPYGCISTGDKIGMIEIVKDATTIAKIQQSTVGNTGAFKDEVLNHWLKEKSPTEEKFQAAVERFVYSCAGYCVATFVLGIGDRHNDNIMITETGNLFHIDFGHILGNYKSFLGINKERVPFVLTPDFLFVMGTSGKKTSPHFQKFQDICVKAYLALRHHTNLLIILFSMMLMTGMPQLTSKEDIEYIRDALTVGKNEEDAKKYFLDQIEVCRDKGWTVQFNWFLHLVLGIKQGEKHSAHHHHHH
# T1 sequence (O00329 with tags, fused parts or gaps): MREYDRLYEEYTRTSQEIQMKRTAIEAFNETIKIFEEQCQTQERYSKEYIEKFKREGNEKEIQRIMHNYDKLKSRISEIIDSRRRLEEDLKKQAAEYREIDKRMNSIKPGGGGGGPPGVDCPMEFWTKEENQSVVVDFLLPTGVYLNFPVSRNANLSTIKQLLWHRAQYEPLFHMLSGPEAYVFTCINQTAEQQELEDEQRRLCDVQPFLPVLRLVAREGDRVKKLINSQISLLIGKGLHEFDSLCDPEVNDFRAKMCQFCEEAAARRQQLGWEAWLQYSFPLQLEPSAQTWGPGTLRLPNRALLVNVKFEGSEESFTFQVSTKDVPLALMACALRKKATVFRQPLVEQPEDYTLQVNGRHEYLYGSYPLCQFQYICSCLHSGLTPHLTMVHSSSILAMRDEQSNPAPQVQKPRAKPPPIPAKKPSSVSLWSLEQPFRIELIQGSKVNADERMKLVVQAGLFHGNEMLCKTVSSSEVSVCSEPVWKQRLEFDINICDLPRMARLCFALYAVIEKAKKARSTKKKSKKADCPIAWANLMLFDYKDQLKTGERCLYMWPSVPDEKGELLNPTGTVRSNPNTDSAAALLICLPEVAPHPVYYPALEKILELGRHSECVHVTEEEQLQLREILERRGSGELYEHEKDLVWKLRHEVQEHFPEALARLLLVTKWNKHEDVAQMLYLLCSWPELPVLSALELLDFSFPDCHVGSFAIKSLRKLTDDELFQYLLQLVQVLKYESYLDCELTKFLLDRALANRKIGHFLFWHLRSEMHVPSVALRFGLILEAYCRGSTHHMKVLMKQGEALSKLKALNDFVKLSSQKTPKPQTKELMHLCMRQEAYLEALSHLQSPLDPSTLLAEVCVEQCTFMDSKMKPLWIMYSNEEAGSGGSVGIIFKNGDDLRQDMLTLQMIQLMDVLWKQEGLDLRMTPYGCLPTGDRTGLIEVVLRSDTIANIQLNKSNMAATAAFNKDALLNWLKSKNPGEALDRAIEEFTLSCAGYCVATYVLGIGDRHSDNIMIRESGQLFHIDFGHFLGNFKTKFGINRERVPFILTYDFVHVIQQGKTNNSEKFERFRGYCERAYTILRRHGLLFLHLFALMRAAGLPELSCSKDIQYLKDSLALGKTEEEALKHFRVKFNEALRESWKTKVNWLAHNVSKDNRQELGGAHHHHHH
# T2 sequence (P42336 with tags, fused parts or gaps): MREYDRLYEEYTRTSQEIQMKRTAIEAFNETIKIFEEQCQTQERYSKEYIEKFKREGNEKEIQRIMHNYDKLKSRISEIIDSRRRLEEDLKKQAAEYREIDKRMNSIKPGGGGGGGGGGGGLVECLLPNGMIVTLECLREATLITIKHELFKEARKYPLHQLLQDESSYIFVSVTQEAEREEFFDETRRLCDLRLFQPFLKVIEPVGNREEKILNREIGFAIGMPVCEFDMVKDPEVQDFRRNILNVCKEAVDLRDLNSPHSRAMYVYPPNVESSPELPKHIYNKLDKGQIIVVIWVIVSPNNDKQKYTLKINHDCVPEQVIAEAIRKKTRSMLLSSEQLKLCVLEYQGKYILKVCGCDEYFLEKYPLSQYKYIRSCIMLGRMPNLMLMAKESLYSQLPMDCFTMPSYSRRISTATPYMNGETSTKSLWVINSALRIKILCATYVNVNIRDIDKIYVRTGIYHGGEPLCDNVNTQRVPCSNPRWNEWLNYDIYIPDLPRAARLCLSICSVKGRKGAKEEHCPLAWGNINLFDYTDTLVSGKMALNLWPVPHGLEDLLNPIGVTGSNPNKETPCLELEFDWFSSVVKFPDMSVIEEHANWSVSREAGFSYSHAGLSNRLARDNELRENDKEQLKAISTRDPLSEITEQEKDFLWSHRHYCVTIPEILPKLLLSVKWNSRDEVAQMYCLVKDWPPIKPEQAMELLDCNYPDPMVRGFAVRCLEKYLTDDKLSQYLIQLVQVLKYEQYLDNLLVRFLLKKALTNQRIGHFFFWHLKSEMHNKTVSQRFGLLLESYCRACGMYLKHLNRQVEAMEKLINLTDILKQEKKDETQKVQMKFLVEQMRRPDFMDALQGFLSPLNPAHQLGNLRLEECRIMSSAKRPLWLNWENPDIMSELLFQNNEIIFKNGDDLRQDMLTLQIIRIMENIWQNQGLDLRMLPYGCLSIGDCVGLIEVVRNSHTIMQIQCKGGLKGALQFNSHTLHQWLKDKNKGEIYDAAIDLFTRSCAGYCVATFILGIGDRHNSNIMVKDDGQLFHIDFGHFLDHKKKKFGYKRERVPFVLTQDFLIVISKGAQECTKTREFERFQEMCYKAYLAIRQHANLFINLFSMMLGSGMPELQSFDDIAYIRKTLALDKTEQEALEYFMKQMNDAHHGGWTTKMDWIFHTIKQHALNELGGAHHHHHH
# T4 sequence (P42338 with tags, fused parts or gaps): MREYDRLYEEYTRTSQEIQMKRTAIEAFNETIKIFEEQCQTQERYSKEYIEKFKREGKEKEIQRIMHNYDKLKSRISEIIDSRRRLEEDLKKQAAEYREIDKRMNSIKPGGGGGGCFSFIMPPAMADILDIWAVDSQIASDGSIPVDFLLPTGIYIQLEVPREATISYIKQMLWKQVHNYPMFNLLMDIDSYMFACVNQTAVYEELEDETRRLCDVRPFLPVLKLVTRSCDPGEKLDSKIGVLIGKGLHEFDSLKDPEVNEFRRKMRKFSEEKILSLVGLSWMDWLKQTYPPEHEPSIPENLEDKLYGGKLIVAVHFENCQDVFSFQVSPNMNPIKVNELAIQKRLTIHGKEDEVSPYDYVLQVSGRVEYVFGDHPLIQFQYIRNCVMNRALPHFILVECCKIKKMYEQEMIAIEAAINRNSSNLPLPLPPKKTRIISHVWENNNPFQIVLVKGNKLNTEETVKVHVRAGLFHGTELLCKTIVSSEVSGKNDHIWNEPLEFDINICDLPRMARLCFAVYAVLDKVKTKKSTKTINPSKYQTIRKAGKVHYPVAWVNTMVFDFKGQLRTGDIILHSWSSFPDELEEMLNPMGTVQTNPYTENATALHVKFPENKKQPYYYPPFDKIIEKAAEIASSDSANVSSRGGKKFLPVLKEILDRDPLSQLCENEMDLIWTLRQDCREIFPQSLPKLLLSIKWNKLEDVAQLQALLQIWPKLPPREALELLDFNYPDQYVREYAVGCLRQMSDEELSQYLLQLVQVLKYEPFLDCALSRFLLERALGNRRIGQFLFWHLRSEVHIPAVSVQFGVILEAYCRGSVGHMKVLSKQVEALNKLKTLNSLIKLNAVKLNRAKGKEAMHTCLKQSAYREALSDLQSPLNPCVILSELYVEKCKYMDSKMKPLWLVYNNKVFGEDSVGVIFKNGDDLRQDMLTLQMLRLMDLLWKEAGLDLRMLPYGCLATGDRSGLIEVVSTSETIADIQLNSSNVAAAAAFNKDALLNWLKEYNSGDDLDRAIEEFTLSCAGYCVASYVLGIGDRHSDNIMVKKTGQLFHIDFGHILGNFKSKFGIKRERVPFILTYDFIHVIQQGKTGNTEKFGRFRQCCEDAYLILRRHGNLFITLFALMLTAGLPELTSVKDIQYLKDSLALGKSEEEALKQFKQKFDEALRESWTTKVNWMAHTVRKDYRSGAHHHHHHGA
SMILES,IC50 (PI3Kδ) [nM],IC50 (PI3Kα; [1]) [nM],IC50 (PI3Kγ) [nM],IC50 (PI3Kβ; [2]) [nM],IC50 (PI3Kα) [nM],PI3Ka/IC50 (PI3Kα; [3]) [umol I-1],IC50 (PI3Kβ) [nM]
"Cc1nc(NC(=O)N2CCC[C@H]2C(N)=O)sc1-c1ccnc(-c2ccccc2F)n1 [Example 51, (S)-Pyrrolidine-1,2-dicarboxylic acid 2-amide 1-({5-[2-(2-fluoro-phenyl)pyrimidin-4-yl]-4-methyl-thiazol-2-yl}-amide)]",690,113,3480,8840,–,–,–
"CC(C)(c1cc(-c2cnc(NC(=O)N3CCC[C@H]3C(N)=O)s2)ccn1)C(F)(F)F [Example 12, (S)-Pyrrolidine-1,2-dicarboxylic acid 2-amide 1-({5-[2-(2,2,2-trifluoro-1,1-dimethyl-ethyl)-pyridin-4-yl]-thiazol-2-yl}-amide)]",197,–,352,3870,10,–,–
"Cc1nc(NC(=O)N2CCC[C@H]2C(N)=O)sc1-c1ccnc(C(C)(C)C)c1 [Example 1, (S)-Pyrrolidine-1,2-dicarboxylic acid 2-amide 1-{[5-(2-tert-butyl-pyridin-4-yl)-4-methyl-thiazol-2-yl]-amide}]",971,–,680,4430,–,–,–
"Cc1nc(NC(=O)N2CCC[C@H]2C(N)=O)sc1-c1ccnc(-c2ccccc2F)c1 [Example 3, (S)-Pyrrolidine-1,2-dicarboxylic acid 2-amide 1-({5-[2-(2-fluoro-phenyl)-pyridin-4-yl]-4-methyl-thiazol-2-yl}-amide)]",432,67,362,2300,–,–,–
"Cc1nc(NC(=O)N2CCC[C@H]2C(N)=O)sc1-c1ccnc(Cc2c(Cl)cccc2Cl)n1 [Example 47, (S)-Pyrrolidine-1,2-dicarboxylic acid 2-amide 1-({5-[2-(2,6-dichloro-benzyl)pyrimidin-4-yl]-4-methyl-thiazol-2-yl}-amide)]",156,94,1870,2900,–,–,–
"Cc1nc(NC(=O)N2CCC[C@H]2C(N)=O)sc1-c1ccnc(C2(C)CC2)n1 [Example 42, (S)-Pyrrolidine-1,2-dicarboxylic acid 2-amide 1-({4-methyl-5-[2-(1-methylcyclopropyl)-pyrimidin-4-yl]-thiazol-2-yl}-amide)]",289,–,858,–,–,–,3170

# Further compounds by falling IC50 (PI3Kδ), results first:
IC50 (PI3Kδ) [nM],IC50 (PI3Kα; [1]) [nM],IC50 (PI3Kγ) [nM],IC50 (PI3Kβ; [2]) [nM],IC50 (PI3Kα) [nM],PI3Ka/IC50 (PI3Kα; [3]) [umol I-1],SMILES,IC50 (PI3Kβ) [nM]
804,56,684,6170,–,–,"COc1ccc(C2(c3cc(-c4sc(NC(=O)N5CCC[C@H]5C(N)=O)nc4C)ccn3)CC2)cc1 [Example 29, (S)-Pyrrolidine-1,2-dicarboxylic acid 2-amide 1-[(5-{2-[1-(4-methoxy-phenyl)-cyclopropyl]-pyridin-4-yl}-4-methyl-thiazol-2-yl)-amide]]",–
386,–,4450,5520,–,0.039,"CC(C)(c1cc(-c2sc(NC(=O)N3CCC[C@H]3C(N)=O)nc2Cl)ccn1)C(F)(F)F [Example 37, (S)-Pyrrolidine-1,2-dicarboxylic acid 2-amide 1-({4-chloro-5-[2-(2,2,2-trifluoro-1,1-dimethyl-ethyl)-pyridin-4-yl]-thiazol-2-yl}-amide)]",–
298,13,435,2740,–,–,"Cc1nc(NC(=O)N2CCC[C@H]2C(N)=O)sc1-c1cncc(C2CC2)n1 [Example 66, (S)-Pyrrolidine-1,2-dicarboxylic acid 2-amide 1-{[5-(6-cyclopropyl-pyrazin-2-yl)-4-methyl-thiazol-2-yl]-amide}]",–
271,81,1560,5200,–,–,"COc1ccc(C(C)(C)c2cc(-c3sc(NC(=O)N4CCC[C@H]4C(N)=O)nc3C)ccn2)cc1 [Example 27, (S)-Pyrrolidine-1,2-dicarboxylic acid 2-amide 1-[(5-{2-[1-(4-methoxy-phenyl)-1-methyl-ethyl]-pyridin-4-yl}-4-methyl-thiazol-2-yl)-amide]]",–
161,–,183,4490,–,–,"NC(=O)[C@@H]1CCCN1C(=O)Nc1ncc(-c2ccnc(C3(C(F)(F)F)CCC3)c2)s1 [Example 13, (S)-Pyrrolidine-1,2-dicarboxylic acid 2-amide 1-({5-[2-(1-trifluoromethyl-cyclobutyl)-pyridin-4-yl]-thiazol-2-yl}-amide)]",–
98,–,790,1200,–,0.016,"CCN(CC)c1nccc(-c2sc(NC(=O)N3CCC[C@H]3C(N)=O)nc2C)n1 [Example 63, (S)-Pyrrolidine-1,2-dicarboxylic acid 2-amide 1-{[5-(2-diethylamino-pyrimidin-4-yl)-4-methyl-thiazol-2-yl]-amide}]",–
32,10,451,692,–,–,"Cc1nc(NC(=O)N2CCC[C@H]2C(N)=O)sc1-c1ccnc(C(C)(C)C(F)(F)F)n1 [Example 64, (S)-Pyrrolidine-1,2-dicarboxylic acid 2-amide 1-({4-methyl-5-[2-(2,2,2-trifluoro-1,1-dimethyl-ethyl)-pyrimidin-4-yl]-thiazol-2-yl}-amide)]",–
